# Assay results taken from ChEMBL document CHEMBL1201862, “PubChem BioAssay data set” (2004).
# Calls of active or inactive are those of the source.
# Columns and labels:
# Cytochrome P450 1A2 = biological target: T1, Cytochrome P450 1A2 (Homo sapiens, UniProt P05177);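 further: PubChem cytochrome P450 panel assay, CYP1A2 panel member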
# T1 sequence (P05177 whole entry): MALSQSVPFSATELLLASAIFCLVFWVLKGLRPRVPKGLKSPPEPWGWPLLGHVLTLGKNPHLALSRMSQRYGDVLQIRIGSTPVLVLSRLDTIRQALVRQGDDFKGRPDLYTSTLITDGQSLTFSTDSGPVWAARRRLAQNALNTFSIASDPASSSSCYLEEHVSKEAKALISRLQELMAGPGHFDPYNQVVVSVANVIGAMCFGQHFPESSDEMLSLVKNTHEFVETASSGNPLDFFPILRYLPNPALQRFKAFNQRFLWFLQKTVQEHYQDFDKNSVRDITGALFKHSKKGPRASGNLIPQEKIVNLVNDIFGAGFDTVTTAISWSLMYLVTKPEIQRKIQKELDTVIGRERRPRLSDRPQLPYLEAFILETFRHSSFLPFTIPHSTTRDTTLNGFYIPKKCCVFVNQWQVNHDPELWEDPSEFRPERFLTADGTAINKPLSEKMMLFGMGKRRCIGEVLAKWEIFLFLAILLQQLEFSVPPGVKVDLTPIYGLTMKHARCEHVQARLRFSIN
# Cytochrome P450 2C9 = Cytochrome P450 2C9 (Homo sapiens, UniProt P11712)
# Cytochrome P450 2C9, sequence (P11712 whole entry): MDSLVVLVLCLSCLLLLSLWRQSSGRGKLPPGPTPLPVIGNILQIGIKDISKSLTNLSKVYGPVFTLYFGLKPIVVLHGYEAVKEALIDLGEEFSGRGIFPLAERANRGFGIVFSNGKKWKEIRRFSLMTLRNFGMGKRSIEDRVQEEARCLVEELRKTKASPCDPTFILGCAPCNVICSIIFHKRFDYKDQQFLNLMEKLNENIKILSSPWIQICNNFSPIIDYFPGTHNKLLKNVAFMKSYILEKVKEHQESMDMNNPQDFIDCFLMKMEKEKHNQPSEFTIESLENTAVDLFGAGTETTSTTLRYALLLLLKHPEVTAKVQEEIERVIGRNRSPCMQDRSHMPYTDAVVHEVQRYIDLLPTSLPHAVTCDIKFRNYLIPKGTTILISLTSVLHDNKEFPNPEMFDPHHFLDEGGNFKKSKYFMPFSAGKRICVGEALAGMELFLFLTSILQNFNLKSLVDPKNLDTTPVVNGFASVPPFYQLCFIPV
# [1] = Luminescence Cell-Based Dose Confirmation HTS to Identify Inhibitors of Platelet Dense Granule Release. [Related pubchem assays: 1663 (Primary HTS), 1678 (Summary of Project)]; type: functional
# [2] = biological target: Luciferin 4-monooxygenase (Photinus pyralis, UniProt P08659); experiment: inhibition of purified Photinus pyralis luciferase – biochemical, luminescence, dose response (AID 1891)
# Luciferin 4-monooxygenase, sequence (P08659 whole entry): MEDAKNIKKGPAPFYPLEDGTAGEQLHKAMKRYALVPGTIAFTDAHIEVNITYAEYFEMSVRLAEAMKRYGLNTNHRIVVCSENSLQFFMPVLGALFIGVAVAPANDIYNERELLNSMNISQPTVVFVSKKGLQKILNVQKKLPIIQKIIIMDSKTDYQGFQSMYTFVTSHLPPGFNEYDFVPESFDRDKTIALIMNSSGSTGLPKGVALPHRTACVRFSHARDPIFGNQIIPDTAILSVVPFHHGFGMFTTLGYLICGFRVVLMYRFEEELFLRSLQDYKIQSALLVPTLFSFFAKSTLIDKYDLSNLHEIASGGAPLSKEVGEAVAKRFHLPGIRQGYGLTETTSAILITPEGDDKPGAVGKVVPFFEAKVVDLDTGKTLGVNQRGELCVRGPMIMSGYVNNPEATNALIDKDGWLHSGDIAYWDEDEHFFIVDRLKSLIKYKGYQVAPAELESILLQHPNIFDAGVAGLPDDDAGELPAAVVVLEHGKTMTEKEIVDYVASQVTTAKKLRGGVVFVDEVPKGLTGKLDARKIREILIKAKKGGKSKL
# [3] = viability of uninfected HEp-2 cells – cell-based, HTS, cytotoxicity control for RSV inhibitor project, dose response (AID 2410); type: functional; settings: human respiratory syncytial virus
# [4] = loss of viability in HepG2 cells – cell-based, CellTiter-Glo, cherry-picked, cytotoxicity control for Shn3 inhibitor project, dose response (AID 624134); type: functional
# [5] = NIH3T3 cell viability loss – ATP luminescence, mouse fibroblasts, counter-screen, dose response (AID 2010); type: functional, cell-based;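 further: cells exposed to compound for about 90 hours before reading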
# [6] = Trypanosoma cruzi growth suppression in host cells – NIH3T3 host cells, beta-gal luminescence, confirmation (AID 2044); type: functional, cell-based;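 further: intracellular parasites grown in NIH/3T3 mouse fibroblasts as host cells; luminescent beta-galactosidase reporter signal from transgenic T. cruzi replicating inside host cells; inhibitors lower the luminescence signal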
# [7] = reduction of Shn3 3'UTR-driven luciferase in osteoblasts – cell-based, Clone20 osteoblasts, firefly luciferase, cherry-picked, dose response (AID 624132); type: functional;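 further: firefly luciferase luminescence from reporter carrying the Shn3 3'UTR in osteoblasts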
# [8] = non-specific 3'UTR reporter inhibition in Clone20-Shn3RL – cell-based, Renilla luciferase, cherry-picked, counter-screen for Shn3 inhibitor project, dose response (AID 624133); type: functional
# [9] = biological target: T2, Ubiquitin-conjugating enzyme E2 N (Homo sapiens, UniProt P61088); type: functional;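 further: Dose-response confirmation in a TR-FRET assay detecting UBC13-driven polyubiquitin chain formation, inhibition measured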
# T2 sequence (P61088 whole entry): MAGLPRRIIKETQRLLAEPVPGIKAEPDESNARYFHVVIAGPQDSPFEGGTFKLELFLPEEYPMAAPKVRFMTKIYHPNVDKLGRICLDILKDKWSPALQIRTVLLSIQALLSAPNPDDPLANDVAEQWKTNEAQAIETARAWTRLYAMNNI
# Cytochrome P450 2C19 = Cytochrome P450 2C19 (Homo sapiens, UniProt P33261); experiment: Cytochrome panel assay with activity outcomes. Panel member name: p450-cyp2c19 Compounds with AC50 equal or less than 10 uM are considered active; type: functional; settings: read-out: AC50
# Cytochrome P450 2C19, sequence (P33261 whole entry): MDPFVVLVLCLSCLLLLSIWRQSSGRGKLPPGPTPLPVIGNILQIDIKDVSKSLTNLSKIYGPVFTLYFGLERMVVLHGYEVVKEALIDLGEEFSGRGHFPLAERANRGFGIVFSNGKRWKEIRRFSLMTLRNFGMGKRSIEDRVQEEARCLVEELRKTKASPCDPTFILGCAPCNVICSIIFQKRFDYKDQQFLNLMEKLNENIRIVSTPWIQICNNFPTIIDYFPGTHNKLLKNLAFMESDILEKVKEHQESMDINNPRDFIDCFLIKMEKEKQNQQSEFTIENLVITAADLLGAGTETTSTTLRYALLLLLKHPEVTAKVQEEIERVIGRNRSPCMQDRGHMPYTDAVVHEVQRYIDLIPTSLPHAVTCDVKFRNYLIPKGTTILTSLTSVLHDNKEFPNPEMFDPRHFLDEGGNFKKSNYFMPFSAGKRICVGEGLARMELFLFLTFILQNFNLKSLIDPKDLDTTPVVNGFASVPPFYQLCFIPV
# [10] = alpha-synuclein stem-loop luciferase translation blockers – H4 neuroglioma cells, luminescence, confirmation (AID 1988); type: functional, cell-based
# [11] = Luminescence Cell-Based Dose Response HTS to Identify Inhibitors of 5'UTR Stem-Loop Driven Prion Protein mRNA Translation in H4 Neuroglioblastoma Cells. [Related pubchem assays: 1827 (Project Summary), 1813 (Primary HTS)]; type: functional
# [12] = luciferase reporter signal suppression in cells – H4 neuroglioma cells, luminescence, dose response (AID 1990); type: functional, cell-based
# Cytochrome P450 3A4 = Cytochrome P450 3A4 (Homo sapiens, UniProt P08684);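 further: CYP3A4 tested as one member of a cytochrome P450 panel screen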
# Cytochrome P450 3A4, sequence (P08684 whole entry): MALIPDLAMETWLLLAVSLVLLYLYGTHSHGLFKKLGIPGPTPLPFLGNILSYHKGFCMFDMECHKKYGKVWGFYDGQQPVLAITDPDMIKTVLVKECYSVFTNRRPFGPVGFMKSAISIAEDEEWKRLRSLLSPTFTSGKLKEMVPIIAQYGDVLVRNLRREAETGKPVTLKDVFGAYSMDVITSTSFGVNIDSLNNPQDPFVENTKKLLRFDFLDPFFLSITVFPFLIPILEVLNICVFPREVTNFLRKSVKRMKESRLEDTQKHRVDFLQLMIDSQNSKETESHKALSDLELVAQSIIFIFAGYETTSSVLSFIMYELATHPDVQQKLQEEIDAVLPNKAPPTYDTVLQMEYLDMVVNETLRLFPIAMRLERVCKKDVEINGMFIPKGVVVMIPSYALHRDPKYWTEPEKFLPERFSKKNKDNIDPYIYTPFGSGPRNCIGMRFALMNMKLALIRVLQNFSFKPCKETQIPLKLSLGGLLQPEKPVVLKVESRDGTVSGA
structure (smiles),measurement,setting,value
COC(=O)[C@@]1(Cc2ccc(OC)cc2)[C@@H]2[C@@H](CC(=O)[C@H]2CC(=O)C(=O)N(C)C)CN1C(=O)c1ccccc1,AC50,Cytochrome P450 1A2,2 µM (inconclusive)
same,AC50,Cytochrome P450 2C9,39.8 µM (inconclusive)
Sc1nnc(CSCc2ccccc2Cl)n1-c1ccccc1,AC50,Cytochrome P450 1A2,22.4 µM (inconclusive)
same,AC50,Cytochrome P450 2C9,5.01 µM (inconclusive)
COc1ccccc1OC[C@H](O)COC(N)=O,AC50,Cytochrome P450 1A2,10 µM (inconclusive)
Cc1ccsc1C(=O)Nc1nc2ccccc2[nH]1,EC50,[1],4.71 µM (active)
same,EC50,[2],2.67 µM (active)
O=C(c1ccncc1)N1CCC[C@@]2(CCN(c3ccccn3)C2)C1,AC50,Cytochrome P450 1A2,20 µM (inconclusive)
same,AC50,Cytochrome P450 2C9,20 µM (inconclusive)
CCc1ccc2oc(-c3cc(N)ccc3Cl)nc2c1,CC50,[3],41.3 µM (active)
COC(=O)c1c(-c2cccc3ccccc23)csc1NC(=O)Cc1ccc(OC)c(OC)c1,AC50,[4],> 70 µM (inactive)
same,EC50,[5],12.6 µM (active)
same,EC50,[1],> 112 µM (not active)
same,EC50,[2],> 112 µM (not active)
same,EC50,[6],2.49 µM (active)
same,AC50,[7],5.43 µM (active)
same,AC50,[8],16.9 µM (active)
C#CCOCCOCCOCCNc1nc(N2CCN(C(=O)C([C@@H](C)O)n3cc([C@@H](N)CCCCN)nn3)CC2)nc(N2CCN(C(=O)[C@H](CCCCN)n3cc([C@@H](N)CC(N)=O)nn3)CC2)n1 (stereo not given in full),IC50,[9],> 20 µM (inactive)
C#CCOCCOCCOCCNc1nc(N2CCN(C(=O)[C@H]([C@@H](C)CC)n3cc(CCCCN)nn3)CC2)nc(N2CCN(C(=O)[C@H]([C@@H](C)CC)n3cc(CCCN=C(N)N)nn3)CC2)n1,IC50,[9],> 20 µM (inactive)
COc1ccc(-c2nn(-c3ccccc3)cc2C(=O)O)cc1,EC50,[1],> 112 µM (not active)
same,EC50,[2],> 112 µM (not active)
Cc1ccc(S(=O)(=O)N2CCN(C(=O)CN3CCN(C)CC3)C2)cc1,AC50,Cytochrome P450 1A2,15.8 µM (inconclusive)
same,AC50,Cytochrome P450 2C19,28.2 µM (inconclusive)
O=C(CSc1nnc2ccccn12)NNC(=O)c1ccc([N+](=O)[O-])cc1,EC50,[1],> 112 µM (not active)
same,EC50,[2],> 112 µM (not active)
CCC[C@@H](CN1CCC[C@H]1CN1C(N)=NC[C@H]1C(C)C)N1C[C@@H](Cc2ccccc2)N(CCCC2CCCC2)C1=N,IC50,[9],> 20 µM (inactive)
CCOC(=O)c1c(NC(=O)Cc2cccs2)sc(C(=O)N2CCCCC2)c1C,EC50,[10],> 120 µM (not active)
same,EC50,[11],22.2 µM (active)
same,EC50,[12],14.6 µM (active)
CC(C)CCn1nc(C(=O)Nc2nc3c(s2)CCCC3)c2ccccc2c1=O,EC50,[10],12.8 µM (active)
same,EC50,[11],12.9 µM (active)
same,EC50,[12],16.9 µM (active)
Cc1ccc(S(=O)(=O)N2CCCC2C(=O)O)cc1 (stereo not given),EC50,[1],> 112 µM (not active)
same,EC50,[2],> 112 µM (not active)
Cc1nc2cc(NC(=O)Nc3cccc(F)c3)ccc2n1C,EC50,[1],7.45 µM (active)
same,EC50,[2],5.89 µM (active)
O=C(O)CCC/C=C\C[C@@H]1CO[C@H](C(F)(F)F)O[C@@H]1c1ccccc1O,AC50,Cytochrome P450 1A2,39.8 µM (inconclusive)
same,AC50,Cytochrome P450 3A4,15.8 µM (inconclusive)
same,AC50,Cytochrome P450 2C9,20 µM (inconclusive)
same,AC50,Cytochrome P450 2C19,10 µM (inconclusive)
CCOc1cccc(-c2c(C(=O)N/N=C/c3ccco3)nnn2-c2nonc2N)c1,EC50,[1],14.8 µM (active)
same,EC50,[2],> 112 µM (not active)
CCCC(=O)Nc1cc(C(=O)N2CCC3(CC2)OCCO3)ccc1S(=O)(=O)c1ccc(C)cc1,EC50,[10],> 120 µM (not active)
same,EC50,[11],> 120 µM (not active)
same,EC50,[12],> 120 µM (not active)
